Experimental data from US20230015478A1, “GLP-1 RECEPTOR AGONISTS HAVING IMPROVED PHARMACOLOGICAL AND DRUG DELIVERY PROPERTIES” (priority 2021, published 2023).
Where two headings read alike, the source gives them in different places. Numbered stars: 1 amine (or outer) side, 2 acyl side, 3 side chain; on linkers, the order of the positions; unused ones are H or OH. Square brackets hold non-standard residues; d marks the D form. Peptide text beside a SMILES is read from it. Bip = N[C@@H](Cc1ccc(-c2ccccc2)cc1)C(=O)O; X1 = C[C@@](CCc1ccccc1)(N[*:1])C(=O)[*:2]; αMePhe(2-F) = C[C@](N)(Cc1ccccc1F)C(=O)O; hTyr = N[C@@H](CCc1ccc(O)cc1)C(=O)O; hPhe = N[C@@H](CCc1ccccc1)C(=O)O; αMeF = C[C@](N)(Cc1ccccc1)C(=O)O; αMeP = C[C@@]1(C(=O)O)CCCN1; AEEA = NCCOCCOCC(=O)O; Aib = CC(C)(N)C(=O)O

Target: T1, hGLP1 receptor (Homo sapiens, UniProt P43220)
T1 construct: expressed in transfected cells; host or cells: HEK (human embryonic kidney) cells co-expressing hGLP1 receptor and CRE-Luciferase
T1 sequence (P43220 24-463): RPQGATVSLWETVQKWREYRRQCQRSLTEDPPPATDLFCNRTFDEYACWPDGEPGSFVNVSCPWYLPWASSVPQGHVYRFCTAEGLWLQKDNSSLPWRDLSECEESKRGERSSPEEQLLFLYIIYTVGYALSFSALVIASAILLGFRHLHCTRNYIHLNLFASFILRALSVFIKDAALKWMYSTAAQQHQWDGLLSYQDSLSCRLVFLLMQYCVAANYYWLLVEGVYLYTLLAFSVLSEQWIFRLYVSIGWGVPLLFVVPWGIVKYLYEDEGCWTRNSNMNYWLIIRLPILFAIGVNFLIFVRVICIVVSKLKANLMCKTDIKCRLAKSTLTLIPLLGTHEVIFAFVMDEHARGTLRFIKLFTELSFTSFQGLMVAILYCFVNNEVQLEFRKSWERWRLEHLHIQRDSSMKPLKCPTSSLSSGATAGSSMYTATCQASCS
Experiment: cAMP HTRF agonist assay in HEK cells co-expressing hGLP1 receptor and CRE-Luciferase
Type: cell-based
Conditions: for potency compared with the parent peptide analog (1-2): replacement of Aib2, in words
Outline: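 HEK cells co-expressing hGLP1R and CRE-luciferase, 1000 cells/well in DPBS with 500 μM IBMX, exposed to peptides or exendin-4 reference for 30 min; 11-point 1:3 series from top 1.0 μM. cAMP measured by HTRF (665/615 nm) after 1 h at room temperature; EC50 from 4-parameter logistic fit.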

[1] = cAMP EC50, nM (0.1% albumin), Table 4, 0.1% albumin
[2] = Table 5, 0% albumin, read-out: cAMP EC50, nM (0% albumin)
[3] = cAMP EC50, nM (0.1% albumin), Table 6, 0.1% albumin

SMILES	EC50 [1] [nM]	EC50 [3] [nM]	further results
C[C@@H](O)[C@H](NC(=O)CNC(=O)[C@H](CCC(=O)O)NC(=O)[C@@H]1CCCN1C(=O)[C@@H](N)Cc1c[nH]cn1)C(=O)N[C@@](C)(Cc1ccccc1F)C(=O)N[C@H](C(=O)N[C@@H](CO)C(=O)N[C@@H](CC(=O)O)C(=O)N[C@@H](Cc1ccc(-c2ccccc2)cc1)C(=O)N[C@@H](Cc1ccc(-c2ccccc2)cc1)C(N)=O)[C@@H](C)O [3-38, H2N-His-Pro-Glu-Gly-Thr-α-MePhe(2-F)-Thr-Ser-Asp-Bip-Bip-C(O)NH2] (H-HPEGT[αMePhe(2-F)]TSD[Bip][Bip]-NH2)	0.04		
CC(C)[C@H](NC(=O)[C@@H](N)Cc1c[nH]cn1)C(=O)N[C@@H](CCC(=O)O)C(=O)NCC(=O)N[C@H](C(=O)N[C@@](C)(Cc1ccccc1F)C(=O)N[C@H](C(=O)N[C@@H](CO)C(=O)N[C@@H](CC(=O)O)C(=O)N[C@@H](Cc1ccc(-c2ccccc2)cc1)C(=O)N[C@@H](Cc1ccc(-c2ccccc2)cc1)C(N)=O)[C@@H](C)O)[C@@H](C)O [3-39, H2N-His-Val-Glu-Gly-Thr-α-MePhe(2-F)-Thr-Ser-Asp-Bip-Bip-C(O)NH2] (H-HVEGT[αMePhe(2-F)]TSD[Bip][Bip]-NH2)	0.37		potency compared with the parent peptide analog (1-2): slightly less potency
C[C@@H](O)[C@H](NC(=O)CNC(=O)[C@H](CCC(=O)O)NC(=O)[C@]1(C)CCCN1C(=O)[C@@H](N)Cc1c[nH]cn1)C(=O)N[C@@](C)(Cc1ccccc1F)C(=O)N[C@H](C(=O)N[C@@H](CO)C(=O)N[C@@H](CC(=O)O)C(=O)N[C@@H](Cc1ccc(-c2ccccc2)cc1)C(=O)N[C@@H](Cc1ccc(-c2ccccc2)cc1)C(N)=O)[C@@H](C)O [3-40, H2N-His-α-MePro-Glu-Gly-Thr-α-MePhe(2-F)-Thr-Ser-Asp-Bip-Bip-C(O)NH2] (H-H[αMeP]EGT[αMePhe(2-F)]TSD[Bip][Bip]-NH2)	0.003		potency compared with the parent peptide analog (1-2): significantly greater potency
C[C@@H](O)[C@H](NC(=O)CNC(=O)[C@H](CCC(=O)O)NC(=O)C1(C)CCCN1C(=O)[C@@H](N)Cc1c[nH]cn1)C(=O)NC(C)(Cc1ccccc1F)C(=O)N[C@H](C(=O)N[C@@H](CO)C(=O)N[C@@H](CC(=O)O)C(=O)NC(C)(C)C(=O)N[C@@H](Cc1ccc(-c2ccccc2)cc1)C(N)=O)[C@@H](C)O (stereo partly drawn) [3-60, H2N-His-α-MePro-Glu-Gly-Thr-α-MePhe(2-F)-Thr-Ser-Asp-Aib-Bip-C(O)NH2]	> 1000		
C[C@@H](O)[C@H](NC(=O)CNC(=O)[C@H](CCC(=O)O)NC(=O)[C@]1(C)CCCN1C(=O)[C@@H](N)Cc1c[nH]cn1)C(=O)N[C@@](C)(Cc1ccccc1)C(=O)N[C@H](C(=O)N[C@@H](CO)C(=O)N[C@@H](CC(=O)O)C(=O)N[C@@H](Cc1ccc(-c2ccccc2)cc1)C(=O)NC(C)(C)C(N)=O)[C@@H](C)O [3-61, H2N-His-α-MePro-Glu-Gly-Thr-α-MePhe-Thr-Ser-Asp-Bip-Aib-C(O)NH2] (H-H[αMeP]EGT[αMeF]TSD[Bip][Aib]-NH2)	8.3		
C[C@@H](O)[C@H](NC(=O)CNC(=O)[C@H](CCC(=O)O)NC(=O)C(C)(C)NC(=O)[C@@H](N)Cc1c[nH]cn1)C(=O)N[C@@](C)(Cc1ccccc1F)C(=O)N[C@@H](CC(N)=O)C(=O)N[C@@H](CO)C(=O)N[C@@H](CC(=O)O)C(=O)N[C@@H](Cc1ccc(-c2ccccc2)cc1)C(=O)N[C@@H](Cc1ccc(-c2ccccc2)cc1)C(N)=O [3-62, H2N-His-Aib-Glu-Gly-Thr-α-MePhe(2-F)-Asn-Ser-Asp-Bip-Bip-C(O)NH2] (H-H[Aib]EGT[αMePhe(2-F)]NSD[Bip][Bip]-NH2)	3.1		
C[C@@H](O)[C@H](NC(=O)CNC(=O)[C@H](CCC(=O)O)NC(=O)C(C)(C)NC(=O)[C@@H](N)Cc1c[nH]cn1)C(=O)N[C@@](C)(Cc1ccccc1F)C(=O)N[C@H](C(=O)N[C@@H](CO)C(=O)N[C@@H](CC(=O)O)C(=O)N[C@@H](Cc1ccc(-c2ccccc2)cc1)C(=O)N[C@@H](CCc1ccccc1)C(=O)O)[C@@H](C)O [4-1, H2N-His-Aib-Glu-Gly-Thr-α-MePhe(2-F)-Thr-Ser-Asp-Bip-Hph-C(O)OH] (H-H[Aib]EGT[αMePhe(2-F)]TSD[Bip][hPhe]-OH)			EC50 [2]: 272 nM; fold lower potency than the parent peptide (1-4) (relative to parent 1-4): about 30 fold
C[C@@H](O)[C@H](NC(=O)CNC(=O)[C@H](CCC(=O)O)NC(=O)C(C)(C)NC(=O)[C@@H](N)Cc1c[nH]cn1)C(=O)N[C@@](C)(Cc1ccccc1F)C(=O)N[C@H](C(=O)N[C@@H](CO)C(=O)N[C@@H](CC(=O)O)C(=O)N[C@@H](Cc1ccc(-c2ccccc2)cc1)C(=O)N[C@@](C)(CCc1ccccc1)C(N)=O)[C@@H](C)O [4-2, H2N-His-Aib-Glu-Gly-Thr-α-MePhe(2-F)-Thr-Ser-Asp-Bip-α-MeHph-C(O)NH2] (H-H[Aib]EGT[αMePhe(2-F)]TSD[Bip][X1]-NH2)			EC50 [2]: 5.5 nM
C[C@@H](O)[C@H](NC(=O)CNC(=O)[C@H](CCC(=O)O)NC(=O)C(C)(C)NC(=O)[C@@H](N)Cc1c[nH]cn1)C(=O)N[C@@](C)(Cc1ccccc1F)C(=O)N[C@H](C(=O)N[C@@H](CO)C(=O)N[C@@H](CC(=O)O)C(=O)N[C@@](C)(CCc1ccccc1)C(=O)N[C@@H](Cc1ccc(-c2ccccc2)cc1)C(N)=O)[C@@H](C)O [4-3, H2N-His-Aib-Glu-Gly-Thr-α-MePhe(2-F)-Thr-Ser-Asp-α-MeHph-Bip-C(O)NH2] (H-H[Aib]EGT[αMePhe(2-F)]TSD[X1][Bip]-NH2)			EC50 [2]: 184 nM
C[C@@H](O)[C@H](NC(=O)CNC(=O)[C@H](CCC(=O)O)NC(=O)C(C)(C)NC(=O)[C@@H](N)Cc1c[nH]cn1)C(=O)N[C@@](C)(Cc1ccccc1F)C(=O)N[C@H](C(=O)N[C@@H](CO)C(=O)N[C@@H](CC(=O)O)C(=O)N[C@@H](Cc1ccc(-c2ccccc2)cc1)C(=O)N[C@@H](CCc1ccc(O)cc1)C(N)=O)[C@@H](C)O [4-4, H2N-His-Aib-Glu-Gly-Thr-α-MePhe(2-F)-Thr-Ser-Asp-Bip-Hph(4-OH)-C(O)NH2] (H-H[Aib]EGT[αMePhe(2-F)]TSD[Bip][hTyr]-NH2)		16.6	EC50 [2]: 16.6 nM
C[C@@H](O)[C@H](NC(=O)CNC(=O)[C@H](CCC(=O)O)NC(=O)C(C)(C)NC(=O)[C@@H](N)Cc1c[nH]cn1)C(=O)N[C@@](C)(Cc1ccccc1F)C(=O)N[C@H](C(=O)N[C@@H](CO)C(=O)N[C@@H](CC(=O)O)C(=O)N[C@@H](Cc1ccc(-c2ccccc2)cc1)C(=O)N[C@@H](Cc1ccc(-c2ccccc2)cc1)C(=O)N[C@@H](CCCCN)C(N)=O)[C@@H](C)O [4-28, H2N-His-Aib-Glu-Gly-Thr-α-MePhe(2F)-Thr-Ser-Asp-Bip-Bip-Lys-NH2] (H-H[Aib]EGT[αMePhe(2-F)]TSD[Bip][Bip]K-NH2)		16.1	
C[C@@H](O)[C@H](NC(=O)CNC(=O)[C@H](CCC(=O)O)NC(=O)C(C)(C)NC(=O)[C@@H](N)Cc1c[nH]cn1)C(=O)N[C@@](C)(Cc1ccccc1F)C(=O)N[C@H](C(=O)N[C@@H](CO)C(=O)N[C@@H](CC(=O)O)C(=O)N[C@@H](Cc1ccc(-c2ccccc2)cc1)C(=O)N[C@@H](Cc1ccc(-c2ccccc2)cc1)C(=O)NCCOCCOCC(=O)NCCOCCOCC(N)=O)[C@@H](C)O [4-29, H2N-His-Aib-Glu-Gly-Thr-α-MePhe(2F)-Thr-Ser-Asp-Bip-Bip-C(O)(AEEA)2-NH2] (H-H[Aib]EGT[αMePhe(2-F)]TSD[Bip][Bip][AEEA][AEEA]-NH2)		10	
C[C@@H](O)[C@H](NC(=O)CNC(=O)[C@H](CCC(=O)O)NC(=O)C(C)(C)NC(=O)[C@@H](N)Cc1c[nH]cn1)C(=O)N[C@@](C)(Cc1ccccc1F)C(=O)N[C@H](C(=O)N[C@@H](CO)C(=O)N[C@@H](CC(=O)O)C(=O)N[C@@H](Cc1ccc(-c2ccccc2)cc1)C(=O)N[C@@H](Cc1ccc(-c2ccccc2)cc1)C(=O)NCCOCCOCC(=O)NCCOCCOCC(=O)N[C@@H](CCCCN)C(N)=O)[C@@H](C)O [4-30, H2N-His-Aib-Glu-Gly-Thr-α-MePhe(2F)-Thr-Ser-Asp-Bip-Bip-C(O)(AEEA)2-Lys-NH2] (H-H[Aib]EGT[αMePhe(2-F)]TSD[Bip][Bip][AEEA][AEEA]K-NH2)		14	
C[C@@H](O)[C@H](NC(=O)CNC(=O)[C@H](CCC(=O)O)NC(=O)C(C)(C)NC(=O)[C@@H](N)Cc1c[nH]cn1)C(=O)N[C@@](C)(Cc1ccccc1F)C(=O)N[C@H](C(=O)N[C@@H](CO)C(=O)N[C@@H](CC(=O)O)C(=O)N[C@@H](Cc1ccc(-c2ccccc2)cc1)C(=O)N[C@@H](Cc1ccc(-c2ccccc2)cc1)C(=O)NCCOCCOCC(=O)NCCOCCOCC(=O)NCCOCCOCC(=O)N[C@@H](CCCCN)C(N)=O)[C@@H](C)O [4-31, H2N-His-Aib-Glu-Gly-Thr-α-MePhe(2F)-Thr-Ser-Asp-Bip-Bip-C(O)(AEEA)3-Lys-NH2] (H-H[Aib]EGT[αMePhe(2-F)]TSD[Bip][Bip][AEEA][AEEA][AEEA]K-NH2)		31.2	
C[C@@H](O)[C@H](NC(=O)CNC(=O)[C@H](CCC(=O)O)NC(=O)C(C)(C)NC(=O)[C@@H](N)Cc1c[nH]cn1)C(=O)N[C@@](C)(Cc1ccccc1F)C(=O)N[C@H](C(=O)N[C@@H](CO)C(=O)N[C@@H](CC(=O)O)C(=O)N[C@@H](Cc1ccc(-c2ccccc2)cc1)C(=O)N[C@@H](Cc1ccc(-c2ccccc2)cc1)C(=O)NC(C)(C)C(=O)NCC(=O)NCC(=O)N[C@@H](CCCCN)C(N)=O)[C@@H](C)O [4-33, H2N-His-Aib-Glu-Gly-Thr-α-MePhe(2F)-Thr-Ser-Asp-Bip-Bip-Aib-(Gly)2-Lys-NH2] (H-H[Aib]EGT[αMePhe(2-F)]TSD[Bip][Bip][Aib]GGK-NH2)		33.7	
C[C@@H](O)[C@H](NC(=O)CNC(=O)[C@H](CCC(=O)O)NC(=O)C(C)(C)NC(=O)[C@@H](N)Cc1c[nH]cn1)C(=O)N[C@@](C)(Cc1ccccc1F)C(=O)N[C@H](C(=O)N[C@@H](CO)C(=O)N[C@@H](CC(=O)O)C(=O)N[C@@H](Cc1ccc(-c2ccccc2)cc1)C(=O)N[C@@H](CCc1ccccc1)C(=O)NCCOCCOCC(=O)NCCOCCOCC(N)=O)[C@@H](C)O [4-35, H2N-His-Aib-Glu-Gly-Thr-α-MePhe(2-F)-Thr-Ser-Asp-Bip-Hph-C(O)NH-RY1] (H-H[Aib]EGT[αMePhe(2-F)]TSD[Bip][hPhe][AEEA][AEEA]-NH2)		67.2	
